Data on 54 molecules can be found in ChEMBL document CHEMBL1944551, “An integrated computational workflow for efficient and quantitative modeling of renin inhibitors” (Bioorg Med Chem, 2012).

The target in one series is T1, Renin (Homo sapiens, UniProt P00797).
T1 sequence (P00797 whole entry): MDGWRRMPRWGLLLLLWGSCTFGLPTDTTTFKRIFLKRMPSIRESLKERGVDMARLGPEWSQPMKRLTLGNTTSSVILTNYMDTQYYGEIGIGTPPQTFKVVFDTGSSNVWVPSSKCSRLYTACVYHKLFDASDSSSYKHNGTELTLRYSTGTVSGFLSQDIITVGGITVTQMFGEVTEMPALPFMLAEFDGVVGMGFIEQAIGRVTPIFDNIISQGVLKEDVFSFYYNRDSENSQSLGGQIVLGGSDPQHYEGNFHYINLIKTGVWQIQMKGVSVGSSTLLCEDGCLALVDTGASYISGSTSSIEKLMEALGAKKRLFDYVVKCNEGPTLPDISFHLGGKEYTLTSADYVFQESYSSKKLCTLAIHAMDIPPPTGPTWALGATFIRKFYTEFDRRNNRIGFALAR

A further series is described as follows: physchem. The conditions noted are these: octanol/buffer.

Description for Renin: Inhibition of human recombinant renin assessed as decrease in release of AngI from tetradecapeptide after 3 hrs by EIA

For the molecule `Cc1ccc(F)cc1Oc1c(C(=O)N2CCNCC2)c2ccc(O)cc2n1-c1ccc(F)cc1`, half-maximal inhibition at Renin (IC50) required 15.8 nM. For the same molecule, the logP in “physchem” came out at 5.45.
On to `Cc1cc(Cl)c(OCCOc2ccc(N3C(=O)CNC[C@@H]3C(=O)N(Cc3cccc(C)c3C)C3CC3)cc2)cc1C`, for which the IC50 on Renin was 7.76 nM. Also, the logP in the series “physchem” came to 5.54.
Molecule `Cc1cccc(CN(C(=O)[C@H]2CNCC(=O)N2c2ccc(OCCOc3c(Cl)cc(F)cc3Cl)cc2)C2CC2)c1C` gave a half-inhibitory concentration (IC50) on Renin of 10.2 nM. In “physchem”, this molecule came in with a logP of 5.69.
The molecule `O=C(c1c(Oc2ccccc2)n(-c2ccccc2)c2cc(Cl)ccc12)N1CCNCC1` had an IC50 against Renin of 537 nM. The molecule further yielded a logP in “physchem” of 5.71.
At Renin, `Cc1c(F)cccc1Cc1cc2c(cc1O)c(C(=O)N1CCNCC1)c(Cc1cccc(F)c1C)n2-c1ccccc1` gave a concentration for half-maximal inhibition (IC50) of 427 nM. For the same molecule, the logP in “physchem” was determined as 7.78.
`Cc1cc(Cl)c(OCCOc2ccc(N3C(=O)CNC[C@@H]3C(=O)N(Cc3cc(CCNC4CC4)ccc3Cl)C3CC3)cc2)c(Cl)c1` showed a logP in “physchem” of 6.39.
For the molecule `CNC(=O)OCCc1ccc(Cl)c(CN(C(=O)[C@H]2CNCC(=O)N2c2ccc(OCCOc3c(Cl)cc(C)cc3Cl)cc2)C2CC2)c1`, the lipophilicity (logP) in the series “physchem” was found to be 5.67.
For `CCNCc1ccc(Cl)c(CN(C(=O)[C@H]2CNCC(=O)N2c2cnc(OCCCOCc3ccccc3OC)nc2)C2CC2)c1`, the logP in the series “physchem” is 3.21.
For the molecule `CCNCc1ccc(Cl)c(CN(C(=O)[C@H]2CNCC(=O)N2c2ccc(COC(=O)c3ccccc3)cc2)C2CC2)c1`, the logP in the series “physchem” stood at 4.89.
In turn, `CN(CCCc1ccccc1)C(=O)[C@H]1CNCC(=O)N1c1ccc(OCCCOCc2ccccc2)cc1` came in with a logP in the series “physchem” of 4.39.
Same read-out and setting: the result for `CN(CCCc1ccccc1)C(=O)[C@H]1CNCC(=O)N1c1ccc(CCCOc2c(F)ccc(F)c2F)cc1` reads 5.01; that for `COc1c(CN(C(=O)[C@H]2CNCC(=O)N2c2ccc(CCCOc3cccc(Cl)c3)cc2)C2CC2)ccnc1C`, 4.29.
`COc1ccccc1COCCCOc1ncc(N2C(=O)CNC[C@@H]2C(=O)N(Cc2cc(CCNC3CC3)ccc2Cl)C2CC2)cn1` displayed a logP in the series “physchem” of 3.61.
In “physchem”, `CCC(=O)NCc1ccc(Cl)c(CN(C(=O)[C@H]2CNCC(=O)N2c2cnc(OCCCOCc3ccccc3OC)nc2)C2CC2)c1` came in with a logP of 2.98.
On to `CC(=O)NCc1ccc(Cl)c(CN(C(=O)[C@H]2CNCC(=O)N2c2ccc(CCCOc3cccc(Cl)c3)cc2)C2CC2)c1`, for which the logP in “physchem” came out at 5.37.
Consider `CCNC(=O)Cc1ccc(Cl)c(CN(C(=O)[C@H]2CNCC(=O)N2c2ccc(OCCOc3c(Cl)cc(C)cc3Cl)nc2)C2CC2)c1`, for which, in the series “physchem”, the logP was 4.77.
The same measure, in the same setting: the result for `O=C(NCc1ccc(Cl)c(CN(C(=O)[C@H]2CNCC(=O)N2c2ccc(OCCCOCc3ccccc3)cc2)C2CC2)c1)C1CC1` reads 4.92.
The same measure, in the same setting: the result for `COc1ccccc1COCCCOc1ccc(N2C(=O)CNC[C@@H]2C(=O)N(C)CCCc2ccccc2)cc1` reads 4.35.
On the same count and under the same terms, in the case of `CN(CCc1ccccc1)C(=O)[C@H]1CNCC(=O)N1c1ccc(COC(=O)c2ccccc2)cc1` it was 3.58.
The molecule `O=C([C@H]1CNCC(=O)N1c1ccc(CCCOc2c(F)ccc(F)c2F)cc1)N(Cc1cccc(Cl)c1)C1CC1` registered a logP in the series “physchem” of 5.77.
Still for that read-out and setting: the result for `Cc1cccc(CN(C(=O)[C@H]2CNCC(=O)N2c2ccc(OCCCOCc3ccccc3)cc2)C2CC2)c1C` reads 5.11; that for `COC(=O)NCc1ccc(Cl)c(CN(C(=O)[C@H]2CNCC(=O)N2c2ccc(OCCOc3c(Cl)cc(C)cc3Cl)nc2)C2CC2)c1`, 4.75; that for `COCCc1ccc(Cl)c(CN(C(=O)[C@H]2CNCC(=O)N2c2ccc(OCCCOCc3ccccc3)cc2)C2CC2)c1`, 5.32.
Turning to `CN(Cc1ccccc1Cl)C(=O)[C@H]1CNCC(=O)N1c1ccc(OCCCOCc2ccccc2)cc1`, the logP in “physchem” is 4.45.
On the same count and under the same terms, the result for `Cc1cc(Cl)c(OCCOc2ccc(N3C(=O)CNC[C@@H]3C(=O)N(Cc3ccc(Cl)cc3)C3CC3)cn2)c(Cl)c1` reads 5.01.
Molecule `Cc1cccc(CN(C(=O)[C@H]2CNCC(=O)N2c2ccc(CCCOc3c(F)ccc(F)c3F)cc2)C2CC2)c1C` had a log partition coefficient (logP) in “physchem” of 5.73.
On the same count and under the same terms, the result for `O=C([C@H]1CNCC(=O)N1c1ccc(CCCOc2c(F)ccc(F)c2F)cc1)N(Cc1ccccc1Cl)C1CC1` reads 5.73; that for `COc1ccccc1COCCCOc1ncc(N2C(=O)CNC[C@@H]2C(=O)N(Cc2cc(CNCCF)ccc2Cl)C2CC2)cn1`, 2.98.
`Cc1cc(Cl)c(OCCOc2ccc(N3C(=O)CNC[C@@H]3C(=O)N(Cc3ccccc3Cl)C3CC3)cn2)c(Cl)c1` came in with a logP in the series “physchem” of 5.
Still for that read-out and setting: in the case of `O=C([C@H]1CNCC(=O)N1c1ccc(OCCCOCc2ccccc2)cc1)N(Cc1cc(CNCC(F)F)ccc1Cl)C1CC1` it was 5.34.
Same read-out and setting: the result for `O=C([C@H]1CNCC(=O)N1c1ccc(CCCOc2cccc(Cl)c2)cc1)N(Cc1ccc(Cl)cc1)C1CC1` reads 5.91; that for `COc1ccccc1COCCCOc1ncc(N2C(=O)CNC[C@@H]2C(=O)N(C)CCc2ccccc2)cn1`, 1.89; that for `O=C([C@H]1CNCC(=O)N1c1ccc(CCCOc2c(F)ccc(F)c2F)cc1)N(Cc1cc(CNCC(F)F)ccc1Cl)C1CC1`, 5.96.
The molecule `Cc1cc(Cl)c(OCCOc2ccc(N3C(=O)CNC[C@@H]3C(=O)N(Cc3cc(CNC(=O)CC(F)(F)F)ccc3Cl)C3CC3)cn2)c(Cl)c1` returned a logP in “physchem” of 5.19.
`COCCCc1cc(CN(C(=O)[C@H]2CNCC(=O)N2c2ccc(OCCCOCc3ccccc3)cc2)C2CC2)c(Cl)c[n+]1[O-]` showed a logP in “physchem” of 4.71.
Same read-out and setting: the result for `CCNCc1ccc(Cl)c(CN(C(=O)[C@H]2CNCC(=O)N2c2ccc(OCCOc3c(Cl)cc(C)cc3Cl)nc2)C2CC2)c1` reads 5.16.
`CC(=O)NCc1ccc(Cl)c(CN(C(=O)[C@H]2CNCC(=O)N2c2ccc(CCCOc3c(F)ccc(F)c3F)cc2)C2CC2)c1` showed a logP in “physchem” of 5.19.
The molecule `Cc1ccc(F)cc1Oc1c(C(=O)N2CCNCC2)c2ccccc2n1[C@H]1C=CCCC1` gave an IC50 against Renin of 6.46 nM. In “physchem”, this molecule came in with a logP of 5.3.
For `CNC(=O)CCc1ccc(Cl)c(CN(C(=O)[C@H]2CNCC(=O)N2c2ccc(OCCCOCc3ccccc3)cc2)C2CC2)c1`, the lipophilicity (logP) in “physchem” came out at 4.62.
`COCCCc1cc(CN(C(=O)[C@H]2CNCC(=O)N2c2ccc(CCCOc3c(F)ccc(F)c3F)cc2)C2CC2)c(Cl)cn1`: in “physchem”, the logP was 5.11.
On to `O=C(OCc1ccc(N2C(=O)CNC[C@@H]2C(=O)NCc2ccccc2Cl)cc1)c1ccccc1`, for which, in the series “physchem”, the logP came to 3.88.
As to `COCCCc1cc(CN(C(=O)[C@H]2CNCC(=O)N2c2ccc(OCCOc3c(Cl)cc(C)cc3Cl)nc2)C2CC2)c(Cl)c[n+]1[O-]`, in the series “physchem”, the logP is 4.61.
For `CC(=O)NCCc1ccc(Cl)c(CN(C(=O)[C@H]2CNCC(=O)N2c2ccc(CCCOc3c(F)ccc(F)c3F)cc2)C2CC2)c1`, the logP in the series “physchem” turned out to be 5.28.
Still for that read-out and setting: the result for `CC(=O)NCCc1ccc(Cl)c(CN(C(=O)[C@H]2CNCC(=O)N2c2ccc(OCCOc3c(Cl)cc(C)cc3Cl)cc2)C2CC2)c1` reads 5.38.
Turning to `COCCCc1ccc(Cl)c(CN(C(=O)[C@H]2CNCC(=O)N2c2cnc(OCCCOCc3ccccc3OC)nc2)C2CC2)c1`, the logP in “physchem” was 3.7.
Still for that read-out and setting: in the case of `COc1ccccc1COCCCOc1ccc(N2C(=O)CNC[C@@H]2C(=O)N(Cc2cc(CNC3CC3)ccc2Cl)C2CC2)cc1` it was 5.53; in that of `CNCCc1ccc(Cl)c(CN(C(=O)[C@H]2CNCC(=O)N2c2ccc(OCCOc3c(Cl)cc(C)cc3Cl)nc2)C2CC2)c1`, 4.91.
`COc1ccccc1COCCCOc1ncc(N2C(=O)CNC[C@@H]2C(=O)N(Cc2cc(CCNC(=O)CC(F)(F)F)ccc2Cl)C2CC2)cn1` gave a logP in “physchem” of 3.32.
On to `CNC(=O)OCc1ccc(Cl)c(CN(C(=O)[C@H]2CNCC(=O)N2c2ccc(CCCOc3c(F)ccc(F)c3F)cc2)C2CC2)c1`, for which, in “physchem”, the logP was 5.48.
`COCCc1ccc(Cl)c(CN(C(=O)[C@H]2CNCC(=O)N2c2ccc(CCCOc3cccc(Cl)c3)cc2)C2CC2)c1` had a logP in “physchem” of 6.12.
Regarding `COc1cccc(CN(C(=O)[C@H]2CNCC(=O)N2c2ccc(COC(=O)c3ccccc3)cc2)C2CC2)c1C`, the logP in “physchem” came out at 4.39.
On to `CNC(=O)CCc1ccc(Cl)c(CN(C(=O)[C@H]2CNCC(=O)N2c2ccc(CCCOc3c(F)ccc(F)c3F)cc2)C2CC2)c1`, for which the logP in “physchem” was 5.24.
Still for that read-out and setting: in the case of `COc1ccccc1COCCCOc1ncc(N2C(=O)CNC[C@@H]2C(=O)N(Cc2cc(CC(=O)NC3CC3)ccc2Cl)C2CC2)cn1` it was 3.13; in that of `CCC(=O)NCc1ccc(Cl)c(CN(C(=O)[C@H]2CNCC(=O)N2c2ccc(COC(=O)c3ccccc3)cc2)C2CC2)c1`, 4.67.

A word on the IC50: it is the concentration that gives 50% inhibition. Low readings indicate greater potency in that assay, high ones weaker potency in that assay. The term logP denotes the decadic logarithm of the partition coefficient of the neutral form, usually between octanol and water. A higher logP goes with a more lipophilic compound.
